Read-outs that look alike come from different tables or passages of the source.
Molecular target: bee venom phospholipase A2 (Apis mellifera, UniProt P00630)
Test: biochemical
Type: biochemical
Details: read-out: 50% inhibition (IC50) of bee venom phospholipase A2

Chain of bee venom phospholipase A2 (P00630 34-167 limits assumed): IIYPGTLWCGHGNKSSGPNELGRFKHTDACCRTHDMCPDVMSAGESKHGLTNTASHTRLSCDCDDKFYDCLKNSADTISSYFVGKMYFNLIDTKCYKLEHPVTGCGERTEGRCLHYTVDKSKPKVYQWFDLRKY

| Structure (SMILES) | IC50 (pH 7.4) [µM] | IC50 [µM] |
| --- | --- | --- |
| O=C1C=C(C(CCCCCCCCCCC(OC(=O)Nc2ccccc2)C2=CC(=O)OC2O)OC(=O)Nc2ccccc2)C(O)O1 (stereo not shown) [Compound 2, 1,12-Di(N-phenylcarbamoyl)-1,12-bis[5-hydroxy-2(5H)-furano-4-yl] dodecane] | 0.03 | – |
| CC(C)(C)C(=O)OC(CCCCCCCCCCCCC(OC(=O)C(C)(C)C)C1=CC(=O)OC1O)C1=CC(=O)OC1O (stereo not shown) [Compound 3, 1,14-Di(tert-butanoyloxy)-1,14-bis[5-hydroxy-2(5H)-furano-4-yl]tetradecane] | 0.02 | – |
| CC(=O)OC(CCCCCCCCCCCCC(OC(C)=O)C1=CC(=O)OC1O)C1=CC(=O)OC1O (stereo not shown) [Compound 1, 1,14-Diacetoxy-1,14-bis[5-hydroxy-2(5H)-4-furanoyl]tetradecane] | 0.01 | – |
| CC(C)(C)C(=O)OC(CCCCCCCCCCCCC(OC(=O)C(C)(C)C)C1=CC(=O)OC1OC(=O)Nc1ccccc1)C1=CC(=O)OC1OC(=O)Nc1ccccc1 (stereo not shown) [Compound 4, 1,14-Di-(tert-butanoyloxy)-1,14-bis[5-(N-phenylcarbamoyl)-2(5H)-furano-4-yl]-tetradecane] | – | > 1 |

Reference: patent publication US5225571A, “Substituted dihydroxy-bis-[5-hydroxy-2(5H)-furanone-4-yl]-alkanes as anti-inflammatory agents” (Allergan, Inc., priority 1991, dated 1993)
